SMILES strings stand for the structures.

We go through 19 compounds from patent publication US11299478B2, “2-cyanopyrimidin-4-yl carbamate or urea derivative or salt thereof, and pharmaceutical composition including same” (HANLIM PHARMACEUTICAL CO., LTD., priority 2018, dated 2022).

Common to all, as to format: biochemical
In one assay the target is T1, cathepsin K (Homo sapiens, UniProt P43235).
T1 sequence (P43235 115-329): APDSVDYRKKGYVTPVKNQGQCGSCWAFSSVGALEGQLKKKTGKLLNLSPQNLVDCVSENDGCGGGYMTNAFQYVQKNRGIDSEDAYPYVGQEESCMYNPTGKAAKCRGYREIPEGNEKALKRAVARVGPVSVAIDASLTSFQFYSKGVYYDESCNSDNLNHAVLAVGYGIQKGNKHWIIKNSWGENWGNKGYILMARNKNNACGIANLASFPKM
The assay is described as follows: Inhibitory activity assay against cathepsin K (enzyme assay). Conditions: Z-Phe-Arg-AMC 10 μM, enzyme 1 nM, pH 5.5, 30 minutes. In a few lines: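 IC50 by 4-parameter logistic fit of fluorescence (ex 355 nm, em 460 nm) after 30 min reaction. Compound tested at 10 final concentrations from 10.0 μM down to 0.000508 μM against 1 nM enzyme and 10 μM Z-Phe-Arg-AMC, in MES buffer pH 5.5 with DTT, EDTA, Triton X-100 and 10% DMSO.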

In the next assay the target is cathepsin B (Homo sapiens, UniProt P07858). Description: Inhibitory activity assay against cathepsin B (enzyme assay). Conditions: Z-Arg-Arg-AMC 40 μM, enzyme 1 nM, pH 6.0, 90 minutes. In a few lines:
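Reaction run 90 min in MES buffer pH 6.0 containing DTT, EDTA, Polysorbate 20 and 10% DMSO, using 40 μM fluorogenic Z-Arg-Arg-AMC and 1 nM cathepsin B. Ten compound levels from 10.0 μM; AMC fluorescence at ex 340/em 460 nm fitted to a 4-parameter logistic for IC50.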

In another assay the target is cathepsin L (Homo sapiens, UniProt P07711). The assay is described as follows: Inhibitory activity assay against cathepsin L (enzyme assay). Conditions: Z-Phe-Arg-AMC 2 μM, enzyme 3 nM, pH 5.5, 30 minutes. In short, it runs like this:
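IC50s came from 4-parameter logistic fits of ten concentrations (10.0 μM down to 0.000508 μM). Reaction: 30 min, 3 nM enzyme, 2 μM Z-Phe-Arg-AMC, pH 5.5 MES buffer containing DTT, EDTA, Polysorbate 20 and 10% DMSO; fluorescence read 340/460 nm.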

The target in a further assay is cathepsin S (Homo sapiens, UniProt P25774). Description: Inhibitory activity assay against cathepsin S (enzyme assay). Conditions: Z-Phe-Arg-AMC 70 μM, enzyme 3 nM, pH 6.5, 45 minutes. In a few lines: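 Ten-point compound titration (10.0 to 0.000508 μM final) reacted 45 min with 3 nM cathepsin S and 70 μM Z-Phe-Arg-AMC in MES 50 mM pH 6.5, DTT 2.5 mM, EDTA 1.0 mM, BSA 0.001%, DMSO 10%. AMC release read at 340/460 nm; IC50 from four-parameter logistic fit.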
cathepsin S, sequence (P25774 115-331, species assumed): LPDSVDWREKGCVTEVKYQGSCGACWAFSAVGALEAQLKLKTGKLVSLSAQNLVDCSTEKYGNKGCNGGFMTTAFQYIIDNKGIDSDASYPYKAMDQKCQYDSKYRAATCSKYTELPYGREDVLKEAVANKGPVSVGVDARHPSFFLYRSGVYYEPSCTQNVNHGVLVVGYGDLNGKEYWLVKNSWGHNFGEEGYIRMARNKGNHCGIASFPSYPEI

cathepsin L, sequence (P07711 114-333, species assumed): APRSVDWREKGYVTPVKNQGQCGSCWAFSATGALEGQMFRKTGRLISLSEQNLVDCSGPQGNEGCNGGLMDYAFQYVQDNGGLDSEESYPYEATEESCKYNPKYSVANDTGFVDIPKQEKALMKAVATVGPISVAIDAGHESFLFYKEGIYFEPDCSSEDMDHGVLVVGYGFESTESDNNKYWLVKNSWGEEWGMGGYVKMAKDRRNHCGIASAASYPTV

As a reminder, the IC50 is the concentration needed to halve the response being measured. On to `CN(C)C(=O)c1ccc(-c2ccc(NC(=O)NC3(c4ccnc(C#N)n4)CCCCC3)cc2)cc1` [Example 130, 4′-(3-(1-(2-cyanopyrimidin-4-yl)cyclohexyl)ureido)-N,N-dimethyl-[1,1′-biphenyl]-4-carboxamide], for which the concentration for half-maximal inhibition (IC50) at cathepsin K was 7.8 nM; against cathepsin B, > 10000 nM; against cathepsin L, > 10000 nM; against cathepsin S, 9070 nM.

`N#Cc1nccc(C2(NC(=O)Nc3ccc(-c4ccc(CCC(=O)O)cc4)cc3)CCCCC2)n1` [Example 131, 3-(4′-(3-(1-(2-cyanopyrimidin-4-yl)cyclohexyl)ureido)-[1,1′-biphenyl]-4-yl)propanoic acid]: the IC50 on cathepsin K was 15.9 nM; at cathepsin B it was > 10000 nM; against cathepsin L, > 10000 nM; at cathepsin S, 3930 nM.

`N#Cc1nccc(C2(NC(=O)Nc3ccc(I)cc3)CCCCC2)n1` [Example 132, 1-(1-(2-cyanopyrimidin-4-yl)cyclohexyl)-3-(4-iodophenyl)urea]: the IC50 at cathepsin K is 15.9 nM; at cathepsin B it was > 10000 nM; against cathepsin L, > 10000 nM; against cathepsin S, > 10000 nM.

Consider `N#Cc1nccc(C2(NC(=O)Nc3ccc(Br)c(C(F)(F)F)c3)CCCCC2)n1` [Example 133, 1-(4-bromo-3-(trifluoromethyl)phenyl)-3-(1-(2-cyanopyrimidin-4-yl)cyclohexyl)urea], for which the IC50 was 63.7 nM at cathepsin K, > 10000 nM on cathepsin B, > 10000 nM against cathepsin L and > 10000 nM against cathepsin S.

`N#Cc1nccc(C2(NC(=O)Nc3ccc(Br)cc3F)CCCCC2)n1` [Example 134, 1-(4-bromo-2-fluorophenyl)-3-(1-(2-cyanopyrimidin-4-yl)cyclohexyl)urea]: the IC50 was 5.3 nM at cathepsin K, > 10000 nM at cathepsin B, > 10000 nM at cathepsin L and > 10000 nM at cathepsin S.

Take `N#Cc1nccc(C2(NC(=O)Nc3ccc(I)c(C(F)(F)F)c3)CCCCC2)n1` [Example 136, 1-(1-(2-cyanopyrimidin-4-yl)cyclohexyl)-3-(4-iodo-3-(trifluoromethyl)phenyl)urea]: the IC50 at cathepsin K was 24.5 nM; at cathepsin B, > 10000 nM; against cathepsin L, > 10000 nM; on cathepsin S, > 10000 nM.

On to `N#Cc1nccc(C2(NC(=O)Nc3ccc(I)c(F)c3)CCCCC2)n1` [Example 137, 1-(1-(2-cyanopyrimidin-4-yl)cyclohexyl)-3-(3-fluoro-4-iodophenyl)urea], for which the IC50 at cathepsin K was 38.2 nM; on cathepsin B, > 10000 nM; against cathepsin L, > 10000 nM; at cathepsin S, 6220 nM.

Consider `CN1CCN(c2ccc(NC(=O)NC3(c4ccnc(C#N)n4)CCCCC3)cc2)CC1` [Example 138, 1-(1-(2-cyanopyrimidin-4-yl)cyclohexyl)-3-(4-(4-methylpiperazin-1-yl)phenyl)urea], for which the half-inhibitory concentration (IC50) was 5.8 nM on cathepsin K, > 10000 nM on cathepsin B, 4200 nM against cathepsin L and ≥ 10000 nM on cathepsin S.

Turning to `N#Cc1nccc(C2(NC(=O)Nc3ccc(N4CCOCC4)cc3)CCCCC2)n1` [Example 139, 1-(1-(2-cyanopyrimidin-4-yl)cyclohexyl)-3-(4-morpholinophenyl)urea], the IC50 at cathepsin K was 12.2 nM; against cathepsin B, > 10000 nM; on cathepsin L, 7030 nM; against cathepsin S it was > 10000 nM.

As to `N#Cc1nccc(C2(NC(=O)Nc3ccc(N4CCNCC4)cc3)CCCCC2)n1` [Example 140, 1-(1-(2-cyanopyrimidin-4-yl)cyclohexyl)-3-(4-(piperazin-1-yl)phenyl)urea], the IC50 at cathepsin K was 21.5 nM; against cathepsin B, > 10000 nM; at cathepsin L, 6570 nM; on cathepsin S, > 10000 nM.

Regarding `CN(C)C1CCN(c2ccc(NC(=O)NC3(c4ccnc(C#N)n4)CCCCC3)cc2)CC1` [Example 141, 1-(1-(2-cyanopyrimidin-4-yl)cyclohexyl)-3-(4-(4-(dimethylamino)piperidin-1-yl)phenyl)urea], the IC50 was 4.5 nM at cathepsin K, > 10000 nM at cathepsin B, > 10000 nM on cathepsin L and > 10000 nM against cathepsin S.

For `CC(C)N1CCN(c2ccc(NC(=O)NC3(c4ccnc(C#N)n4)CCCCC3)cc2)CC1` [Example 142, 1-(1-(2-cyanopyrimidin-4-yl)cyclohexyl)-3-(4-(4-isopropylpiperazin-1-yl)phenyl)urea], the IC50 on cathepsin K is 17.9 nM; against cathepsin B, > 10000 nM; on cathepsin L, > 10000 nM; against cathepsin S, > 10000 nM.

`CC(C)(C)N1CCN(c2ccc(NC(=O)NC3(c4ccnc(C#N)n4)CCCCC3)cc2)CC1` [Example 143, 1-(4-(4-(tert-butyl)piperazin-1-yl)phenyl)-3-(1-(2-cyanopyrimidin-4-yl)cyclohexyl)urea]: the IC50 at cathepsin K was 2.3 nM; against cathepsin B, > 10000 nM; on cathepsin L, > 10000 nM; against cathepsin S it was > 10000 nM.

Take `N#Cc1nccc(C2(NC(=O)Nc3ccc(N4CCN(C5CC5)CC4)cc3)CCCCC2)n1` [Example 144, 1-(1-(2-cyanopyrimidin-4-yl)cyclohexyl)-3-(4-(4-cyclopropylpiperazin-1-yl)phenyl)urea]: the IC50 was 18.3 nM on cathepsin K, > 10000 nM on cathepsin B, > 10000 nM on cathepsin L and > 10000 nM on cathepsin S.

With `CCN1CCN(c2ccc(NC(=O)NC3(c4ccnc(C#N)n4)CCCCC3)cc2)CC1` [Example 146, 1-(1-(2-cyanopyrimidin-4-yl)cyclohexyl)-3-(4-(4-ethylpiperazin-1-yl)phenyl)urea], the IC50 was 3.9 nM at cathepsin K, > 10000 nM against cathepsin B, > 10000 nM against cathepsin L and > 10000 nM against cathepsin S.

Take `COCCNC(=O)c1ccc(-c2ccc(NC(=O)NC3(c4ccnc(C#N)n4)CCCCC3)cc2)cc1` [Example 147, 4′-(3-(1-(2-cyanopyrimidin-4-yl)cyclohexyl)ureido)-N-(2-methoxyethyl)-[1,1′-biphenyl]-4-carboxamide]: the IC50 was 5.2 nM at cathepsin K, > 10000 nM at cathepsin B, > 10000 nM against cathepsin L and 7930 nM on cathepsin S.

Consider `N#Cc1nccc(C2(NC(=O)Nc3ccc(-c4ccc(S(=O)(=O)NC5CC5)cc4)cc3)CCCCC2)n1` [Example 148, 4′-(3-(1-(2-cyanopyrimidin-4-yl)cyclohexyl)ureido)-N-cyclopropyl-[1,1′-biphenyl]-4-sulfonamide], for which the IC50 on cathepsin K was 16.8 nM; on cathepsin B, > 10000 nM; against cathepsin L it was > 10000 nM; on cathepsin S it was 8580 nM.

In the case of `N#Cc1nccc(C2(NC(=O)Nc3ccc(-c4ccc(C(=O)NC5CC5)cc4)cc3)CCCCC2)n1` [Example 149, 4′-(3-(1-(2-cyanopyrimidin-4-yl)cyclohexyl)ureido)-N-cyclopropyl-[1,1′-biphenyl]-4-carboxamide], the half-inhibitory concentration (IC50) at cathepsin K is 6.4 nM; on cathepsin B it was > 10000 nM; against cathepsin L, > 10000 nM; at cathepsin S it was 7300 nM.

Turning to `N#Cc1nccc(C2(NC(=O)Nc3ccc(-c4ccc(C(=O)N5CCCC5)c(Cl)c4)cc3)CCCCC2)n1` [Example 150, 1-(3′-chloro-4′-(pyrrolidin-1-carbonyl)-[1,1′-biphenyl]-4-yl)-3-(1-(2-cyanopyrimidin-4-yl)cyclohexyl)urea], the IC50 is 6.6 nM on cathepsin K, > 10000 nM on cathepsin B, 8920 nM against cathepsin L and > 10000 nM on cathepsin S.
